Test results: ChEMBL document CHEMBL1221255, “New halogenated 3-phenylcoumarins as potent and selective MAO-B inhibitors” (Bioorg Med Chem Lett, 2010); call rule not given here
pIC50: −log10 of the molar value.

Columns and labels:
[1] = target: T1, Amine oxidase [flavin-containing] B (Homo sapiens, UniProt P27338); assay: Inhibition of human MAOB expressed in BTI insect cells; assay type: cell-based
T1 sequence (P27338 whole entry): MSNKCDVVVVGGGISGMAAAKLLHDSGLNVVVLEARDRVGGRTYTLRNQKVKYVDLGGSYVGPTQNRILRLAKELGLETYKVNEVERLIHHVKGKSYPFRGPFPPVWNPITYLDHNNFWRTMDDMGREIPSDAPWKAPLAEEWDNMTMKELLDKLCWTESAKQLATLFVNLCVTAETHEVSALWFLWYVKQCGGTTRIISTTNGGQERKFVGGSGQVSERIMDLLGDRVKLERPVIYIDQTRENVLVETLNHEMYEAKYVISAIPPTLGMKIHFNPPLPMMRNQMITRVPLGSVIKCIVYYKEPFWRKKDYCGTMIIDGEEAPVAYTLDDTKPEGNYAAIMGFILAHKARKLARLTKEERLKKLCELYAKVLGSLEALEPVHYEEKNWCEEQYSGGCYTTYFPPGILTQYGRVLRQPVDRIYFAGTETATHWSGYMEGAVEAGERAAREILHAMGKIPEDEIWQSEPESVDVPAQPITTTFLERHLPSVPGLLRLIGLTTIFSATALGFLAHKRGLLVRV

[2] = target: T2, Amine oxidase [flavin-containing] A (Homo sapiens, UniProt P21397); assay: Inhibition of MAOA expressed in BTI insect cells at 100 uM
T2 sequence (P21397 whole entry): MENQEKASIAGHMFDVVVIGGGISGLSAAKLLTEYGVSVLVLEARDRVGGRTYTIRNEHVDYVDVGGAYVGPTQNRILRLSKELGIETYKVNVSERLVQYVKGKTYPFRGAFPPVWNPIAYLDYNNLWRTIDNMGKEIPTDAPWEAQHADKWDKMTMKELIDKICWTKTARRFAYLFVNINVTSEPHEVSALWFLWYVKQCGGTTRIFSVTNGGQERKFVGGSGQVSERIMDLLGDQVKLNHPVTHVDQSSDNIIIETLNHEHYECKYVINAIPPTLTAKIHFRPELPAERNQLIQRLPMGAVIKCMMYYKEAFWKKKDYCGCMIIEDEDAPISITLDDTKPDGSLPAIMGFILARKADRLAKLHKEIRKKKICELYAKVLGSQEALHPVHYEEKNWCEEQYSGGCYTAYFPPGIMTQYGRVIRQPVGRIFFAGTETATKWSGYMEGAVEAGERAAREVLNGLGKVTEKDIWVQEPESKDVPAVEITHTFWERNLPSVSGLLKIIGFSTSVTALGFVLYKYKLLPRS

Homo sapiens = organism: Homo sapiens; assay: Selectivity ratio of IC50 for human MAOA to IC50 for human MAOB
[3] = target: T2, Amine oxidase [flavin-containing] A; assay: Inhibition of human MAOA expressed in BTI insect cells

| Compound | pIC50 [1] | IC50 [2] | Ratio IC50 (Homo sapiens) | pIC50 [3] |
| --- | --- | --- | --- | --- |
| COc1cc(OC)cc(-c2cc3cc(C)cc(Br)c3oc2=O)c1 | 8.15 | Not Active | > 14000 | – |
| COc1cc(-c2cc3cc(C)cc(Br)c3oc2=O)cc(OC)c1OC | 5.31 | – | 6.4 | 4.51 |
| COc1ccc(-c2cc3cc(C)cc(Br)c3oc2=O)cc1 | 8.49 | Not Active | > 31000 | – |

More lines, now with the values ahead:

| pIC50 [1] | IC50 [2] | Ratio IC50 (Homo sapiens) | pIC50 [3] | Compound |
| --- | --- | --- | --- | --- |
| 7.96 | Not Active | > 9050 | – | Cc1cc(Br)c2oc(=O)c(-c3ccccc3)cc2c1 |
| 5.37 | Not Active | > 23 | – | Cc1ccc2oc(=O)c(-c3ccccc3Br)cc2c1 |
